Measurements from patent US11135237B2, “Lipophosphonoxins of second generation, and their use” (USTAV ORGANICKE CHEMIE A BIOCHEMIE AV CR, V.V.I., priority 2016, dated 2021).
Converted amounts (≈) assume the structure as drawn.

Key:
Type in all cases: cell-based
E. coli 16702 = test: MIC, microdilution method, resistant strains; settings: Escherichia coli, resistant strain, clinical isolate
Description: (§1) Antibacterial activity was measured using a standard microdilution method, showing the minimum inhibitory concentration (MIC) of the test sample which results in inhibition of bacterial growth. Disposable microtiter plates were used for the tests. Samples are dissolved in the brain-heart infusion broth (HiMedia Laboraties Pvt. Ltd., Czech Republic), and Mueller Hinton broth (HiMedia Laboraties, see above) at a final concentration ranging from 200 μg/ml to 1.5625 μg/ml. Plates were inoculated with a standard amount of test bacteria—inoculum density in the hole corresponds to 10^5-6 CFU/ml (colony forming units/ml). MIC values are read after 24/48 hours of incubation at 37° C. as the minimum inhibitory concentration of the test substance at which the growth of bacteria is inhibited. Minimal bactericidal concentration (MBC) is defined as the minimum concentration of the sample needed to achieve irreversible inhibition, therefore killing the bacteria after a defined time of incubation. The MBC was determined by inoculation method. 10 μl from the wells in a microplate with a defined concentration of test substance is taken with an applicator, and inoculated onto the surface of blood agar (Trios, Czech Republic) and Sabouraud agar (Trios, CR). The MBC was determined as the lowest concentration that inhibited visible growth of the bacteria used.

P. aeruginosa 16575 = test: MIC, microdilution method, resistant strains; settings: Pseudomonas aeruginosa, resistant strain, clinical isolate
Description: as §1

E. faecium VanA 419ana = test: MIC, microdilution method, resistant strains; settings: Enterococcus faecium, VANA419ANA; vancomycin-resistant strain, clinical isolate
Description: as §1

S. haemolyticus 16568 = test: MIC, microdilution method, resistant strains; settings: Staphylococcus haemolyticus, fluoroquinolone-resistant strain, clinical isolate
Description: as §1

S. epidermidis 8700B = test: MIC, microdilution method, resistant strains; settings: Staphylococcus epidermidis, methicilin-resistant strain, clinical isolate
Description: as §1

S. aureus MRSA 4591 = test: MIC, microdilution method, resistant strains; settings: Staphylococcus aureus, methicillin-resistant strain, clinical isolate
Description: as §1

[1] = tested on: Staphylococcus aureus CCM 4223; test: MIC, microdilution method, reference strains; settings: CCM4223, read after 24/48 hours of incubation at 37° C.
Description: as §1, with “bacteria-inoculum” for “bacteria—inoculum”, “used. Standard reference bacterial strains (Escherichia coli CCM 3954, Pseudomonas aeruginosa CCM 3955, Enterococcus faecalis CCM 4224, Staphylococcus aureus CCM 4223) were obtained from the Czech Collection of Microorganisms (CCM) at […] University in Brno. Streptococcus agalactiae, Bacillus subtilis were obtained from the University Hospital Olomouc. The tested microorganisms were maintained in cryobanks (ITEST plus, Czech Republic) at -80° C.” for “used.”

Streptococcus agalactiae = test: MIC, microdilution method, reference strains; settings: read after 24/48 hours of incubation at 37° C.
Description: as §1, with “bacteria-inoculum” for “bacteria—inoculum”, “used. Standard reference bacterial strains (Escherichia coli CCM 3954, Pseudomonas aeruginosa CCM 3955, Enterococcus faecalis CCM 4224, Staphylococcus aureus CCM 4223) were obtained from the Czech Collection of Microorganisms (CCM) at […] University in Brno. Streptococcus agalactiae, Bacillus subtilis were obtained from the University Hospital Olomouc. The tested microorganisms were maintained in cryobanks (ITEST plus, Czech Republic) at -80° C.” for “used.”

[2] = tested on: Pseudomonas aeruginosa CCM 3955; test: MIC, microdilution method, reference strains; settings: CCM3955, read after 24/48 hours of incubation at 37° C.
Description: as §1, with “bacteria-inoculum” for “bacteria—inoculum”, “used. Standard reference bacterial strains (Escherichia coli CCM 3954, Pseudomonas aeruginosa CCM 3955, Enterococcus faecalis CCM 4224, Staphylococcus aureus CCM 4223) were obtained from the Czech Collection of Microorganisms (CCM) at […] University in Brno. Streptococcus agalactiae, Bacillus subtilis were obtained from the University Hospital Olomouc. The tested microorganisms were maintained in cryobanks (ITEST plus, Czech Republic) at -80° C.” for “used.”

[3] = tested on: Escherichia coli CCM 3954; test: MIC, microdilution method, reference strains; settings: CCM3954, read after 24/48 hours of incubation at 37° C.
Description: as §1, with “bacteria-inoculum” for “bacteria—inoculum”, “used. Standard reference bacterial strains (Escherichia coli CCM 3954, Pseudomonas aeruginosa CCM 3955, Enterococcus faecalis CCM 4224, Staphylococcus aureus CCM 4223) were obtained from the Czech Collection of Microorganisms (CCM) at […] University in Brno. Streptococcus agalactiae, Bacillus subtilis were obtained from the University Hospital Olomouc. The tested microorganisms were maintained in cryobanks (ITEST plus, Czech Republic) at -80° C.” for “used.”

[4] = tested on: Enterococcus faecalis CCM 4224; test: MIC, microdilution method, reference strains; settings: CCM4224, read after 24/48 hours of incubation at 37° C.
Description: as §1, with “bacteria-inoculum” for “bacteria—inoculum”, “used. Standard reference bacterial strains (Escherichia coli CCM 3954, Pseudomonas aeruginosa CCM 3955, Enterococcus faecalis CCM 4224, Staphylococcus aureus CCM 4223) were obtained from the Czech Collection of Microorganisms (CCM) at […] University in Brno. Streptococcus agalactiae, Bacillus subtilis were obtained from the University Hospital Olomouc. The tested microorganisms were maintained in cryobanks (ITEST plus, Czech Republic) at -80° C.” for “used.”

Bacillus subtilis = test: MIC, microdilution method, reference strains; settings: read after 24/48 hours of incubation at 37° C.
Description: as §1, with “bacteria-inoculum” for “bacteria—inoculum”, “used. Standard reference bacterial strains (Escherichia coli CCM 3954, Pseudomonas aeruginosa CCM 3955, Enterococcus faecalis CCM 4224, Staphylococcus aureus CCM 4223) were obtained from the Czech Collection of Microorganisms (CCM) at […] University in Brno. Streptococcus agalactiae, Bacillus subtilis were obtained from the University Hospital Olomouc. The tested microorganisms were maintained in cryobanks (ITEST plus, Czech Republic) at -80° C.” for “used.”

[5] = tested on: Stenotrophomonas matophilia S2-23; test: MIC, microdilution method; settings: S223, read after 24/48 hours of incubation at 37° C.
Description: as §1

[6] = tested on: Salmonella Enteritidis S2-25; test: MIC, microdilution method; settings: Salmonella enterica, read after 24/48 hours of incubation at 37° C.
Description: as §1

[7] = tested on: Acinetobacter baumanii A3-08; test: MIC, microdilution method; settings: Acinetobacter baumannii, A308; read after 24/48 hours of incubation at 37° C.
Description: as §1

[8] = tested on: Burkholderia multivorans ATCC BAA-247; test: MIC, microdilution method; settings: ATCCBAA247, read after 24/48 hours of incubation at 37° C.
Description: as §1

Structure (SMILES)	MIC (E. coli 16702) [µg/mL]	MIC (P. aeruginosa 16575) [µg/mL]	MIC (E. faecium VanA 419ana) [µg/mL]	MIC (S. haemolyticus 16568) [µg/mL]	MIC (S. epidermidis 8700B) [µg/mL]	MIC (S. aureus MRSA 4591) [µg/mL]	MIC [1] [µg/mL]	MIC (Streptococcus agalactiae) [µg/mL]	MIC [2] [µg/mL]	MIC [3] [µg/mL]	MIC [4] [µg/mL]	MIC (Bacillus subtilis) [µg/mL]	MIC [5] [µg/mL]	MIC [6] [µg/mL]	MIC [7] [µg/mL]	MIC [8] [µg/mL]
CCCCCCCCCCCCCCCCOP(=O)(CCN(CCCN)CCCN)OC[C@H]1O[C@@H](n2ccc(=O)[nH]c2=O)C(O)C1O (stereo partly shown) [Example 1, Hexadecyl-uridine-5′-yl-2-N-bis (3-aminopropyl)-2-aminoethyl phosphonate]	3.12 (≈ 4.53 µM)	3.12 (≈ 4.53 µM)	25 (≈ 36.2 µM)	3.12 (≈ 4.53 µM)	3.12 (≈ 4.53 µM)	25 (≈ 36.2 µM)	12.5 (≈ 18.1 µM)	3.12 (≈ 4.53 µM)	6.25 (≈ 9.06 µM)	3.12 (≈ 4.53 µM)	50 (≈ 72.5 µM)	0.78 (≈ 1.13 µM)				
CCCCCCCCCCCCCCCOP(=O)(CCN(CCCN)CCCN)OC[C@H]1O[C@@H](n2ccc(=O)[nH]c2=O)C(O)C1O (stereo partly shown) [Example 2, Pentadecyl-uridine-5′-yl-2-N-bis(3-aminopropyl)-2-aminoethyl phosphonate]	6.25 (≈ 9.25 µM)	3.12 (≈ 4.62 µM)	25 (≈ 37 µM)	3.12 (≈ 4.62 µM)	6.25 (≈ 9.25 µM)	12.5 (≈ 18.5 µM)	6.25 (≈ 9.25 µM)	3.12 (≈ 4.62 µM)	3.12 (≈ 4.62 µM)	6.25 (≈ 9.25 µM)	50 (≈ 74 µM)	1.56 (≈ 2.31 µM)	3.12 (≈ 4.62 µM)	3.12 (≈ 4.62 µM)	6.25 (≈ 9.25 µM)	12.5 (≈ 18.5 µM)
CCCCCCCCCCCCCOP(=O)(CCN(CCCN)CCCN)OC[C@H]1O[C@@H](n2ccc(=O)[nH]c2=O)C(O)C1O (stereo partly shown) [Example 4, Tridecyl-uridine-5′-yl-2-N-bis (3-aminopropyl)-2-aminoethyl phosphonate]	50 (≈ 77.2 µM)	25 (≈ 38.6 µM)	100 (≈ 154 µM)	6.25 (≈ 9.65 µM)	12.5 (≈ 19.3 µM)	25 (≈ 38.6 µM)	12.5 (≈ 19.3 µM)	6.25 (≈ 9.65 µM)	3.12 (≈ 4.82 µM)	25 (≈ 38.6 µM)	50 (≈ 77.2 µM)	3.12 (≈ 4.82 µM)	50 (≈ 77.2 µM)	50 (≈ 77.2 µM)	50 (≈ 77.2 µM)	50 (≈ 77.2 µM)
CCCCCCCCCCCCOP(=O)(CCN(CCCN)CCCN)OC[C@H]1O[C@@H](n2ccc(=O)[nH]c2=O)C(O)C1O (stereo partly shown) [Example 5, Dodecyl-uridine-5′-yl-2-N-bis (3-aminopropyl)-2-aminoethyl phosphonate]	25 (≈ 39.4 µM)	12.5 (≈ 19.7 µM)	200 (≈ 316 µM)	12.5 (≈ 19.7 µM)	12.5 (≈ 19.7 µM)	50 (≈ 78.9 µM)	25 (≈ 39.4 µM)	12.5 (≈ 19.7 µM)	3.12 (≈ 4.93 µM)	25 (≈ 39.4 µM)	100 (≈ 158 µM)	3.12 (≈ 4.93 µM)				
CCCCCCCCCCCCCCCOP(=O)(CCN(CCN)CCN)OC[C@H]1O[C@@H](n2ccc(=O)[nH]c2=O)C(O)C1O (stereo partly shown) [Example 6, Pentadecyl-uridine-5′-yl-2-N-bis(3-aminoethyl)-2-aminoethyl phosphonate]	1.56 (≈ 2.41 µM)	1.56 (≈ 2.41 µM)	100 (≈ 154 µM)	1.56 (≈ 2.41 µM)	1.56 (≈ 2.41 µM)	6.25 (≈ 9.65 µM)	6.25 (≈ 9.65 µM)	3.12 (≈ 4.82 µM)	1.56 (≈ 2.41 µM)	1.56 (≈ 2.41 µM)	12.5 (≈ 19.3 µM)	0.78 (≈ 1.2 µM)				
CCCCCCCCCCCCCCOP(=O)(CCN(CCN)CCN)OC[C@H]1O[C@@H](n2ccc(=O)[nH]c2=O)C(O)C1O (stereo partly shown) [Example 7, Tetradecyl-uridine-5′-yl-2-N-bis(3-aminoethyl)-2-aminoethyl phosphonate]	6.25 (≈ 9.86 µM)	6.25 (≈ 9.86 µM)	100 (≈ 158 µM)	3.12 (≈ 4.93 µM)	3.12 (≈ 4.93 µM)	12.5 (≈ 19.7 µM)	25 (≈ 39.4 µM)	6.25 (≈ 9.86 µM)	3.12 (≈ 4.93 µM)	12.5 (≈ 19.7 µM)	100 (≈ 158 µM)	6.25 (≈ 9.86 µM)	6.25 (≈ 9.86 µM)	12.5 (≈ 19.7 µM)	25 (≈ 39.4 µM)	12.5 (≈ 19.7 µM)
CCCCCCCCCCCCCCCOP(=O)(CCN(CCCNC(=N)N)CCCNC(=N)N)OC[C@H]1O[C@@H](n2ccc(=O)[nH]c2=O)C(O)C1O (stereo partly shown) [Example 8]	0.78 (≈ 1.03 µM)	1.56 (≈ 2.05 µM)	50 (≈ 65.8 µM)	1.56 (≈ 2.05 µM)	1.56 (≈ 2.05 µM)	3.12 (≈ 4.11 µM)	3.12 (≈ 4.11 µM)	1.56 (≈ 2.05 µM)	0.78 (≈ 1.03 µM)	0.78 (≈ 1.03 µM)	25 (≈ 32.9 µM)	0.39 (≈ 0.513 µM)	3.12 (≈ 4.11 µM)	1.56 (≈ 2.05 µM)	6.25 (≈ 8.22 µM)	100 (≈ 132 µM)
CCCCCCCCCCCCCCOP(=O)(CCN1CCC(N)C1)OC[C@H]1O[C@@H](n2ccc(=O)[nH]c2=O)C(O)C1O (stereo partly shown) [Example 10, Tetradecyl-uridine-5′-yl-(3-aminopyrrolidin-1-N-yl) ethyl phosphonate]	3.12 (≈ 5.07 µM)	3.12 (≈ 5.07 µM)	50 (≈ 81.1 µM)	6.25 (≈ 10.1 µM)	3.12 (≈ 5.07 µM)	25 (≈ 40.5 µM)	12.5 (≈ 20.3 µM)	3.12 (≈ 5.07 µM)	3.12 (≈ 5.07 µM)	3.12 (≈ 5.07 µM)	6.25 (≈ 10.1 µM)	1.56 (≈ 2.53 µM)				
